Experiments:
Format in all cases: cell-based
[1] = tested on: A2780wt cells; test: MTT assay, A2780wt cells; details: MTT assay, 72 h exposure
Method: (§1) Carboplatin, a second‐generation platinum drug commonly used as part of standard first‐line chemotherapy for ovarian carcinoma, was examined as a reference compound due to its clinical relevance. Additionally, the nonmalignant bone marrow stromal cell line HS‐5 was included as a control to assess specificity of the complexes toward cancer cells.
(§2) Unloaded BGs (4 × 10^8 EcN or 2 × 10^8 Ec NM522, which is equivalent to the highest tested BG concentration) were tested as controls.
(§3) The exponentially growing cells were seeded at a density of 8 × 10^3 cells/well (A2780wt/cis) or 1 × 10^4 cells/well (HS‐5), respectively, into clear flat‐bottom 96‐well plates in triplicates. […] After another 72 h of incubation, the cellular metabolic activity was measured as an indicator of cell viability employing an MTT assay. Hereby, 20 µL of a 5 mg/mL MTT solution was added to each well, respectively. After 3 h of incubation, the medium was discarded, and the formazan crystals formed were dissolved in DMSO for 15 min with gentle shaking. […] The OD at 620 nm was subtracted from the OD at 595 nm. The OD of the medium was subtracted to exclude the unspecific staining caused by FCS‐containing medium. Cells treated with vehicle control (0.1% DMF) only were set at 100% metabolic activity. The IC50 values were calculated with Prism 8.0 (GraphPad Software Inc., Boston, MA, USA) using nonlinear regression. Significance was evaluated via a one sample t‐test performed with Prism 8.0.

[2] = tested on: A2780cis cells; test: MTT assay, A2780cis cells
Method: as §1, §2, §3

[3] = tested on: A2780cis cells; test: Annexin V/PI staining and FACS analysis, A2780cis; details: reference at 50 µM, 24 h
Method: (§4) Therefore, we aimed to evaluate the apoptosis and necrosis inducing potential of complexes 1–4 via a fluorescent‐activated cell sorting (FACS) analysis with Annexin V/propidium iodide (PI) staining in A2780wt and A2780cis cells. Cells were treated for 24 h with both the free and BG‐loaded forms of each compound at 25 µM. Carboplatin (50 µM) served as a reference.
(§5) To evaluate the mode of cell death, a FACS measurement after staining with Annexin V and PI was conducted. First, 0.3 × 10^6 A2780wt or A2780cis cells were seeded into 12‐well plates and were allowed to adhere for 24 h. The compounds were added at 25 µM, either diluted from a freshly prepared DMF stock solution (0.1% DMF) or freshly thawed when loaded in BGs. After 24 h of incubation, the cells were harvested with accutase and washed with PBS. The cells were then resuspended in 200 µL of PBS each and 1 µL of PI solution (Sigma‐Aldrich, Taufkirchen, Germany) and 1 µL of Annexin V‐FITC (MabTag GmbH, Friesoythe, Germany) were added to each sample. These were then incubated for 20 min at rt under light‐protected conditions and afterward transferred onto ice. The percentage of apoptotic cells was determined by analyzing Annexin V positive /PI negative cells using a BD LSRFortessa flow cytometer and BD FACSDiva software (both BD Biosciences, San Jose, CA, USA). The apoptosis analysis included the evaluation of early apoptosis (Annexin V positive/PI negative) and late apoptosis/necrosis (Annexin V positive /PI positive).

[4] = tested on: A2780wt cells; test: Comet assay (intracellular DNA damage); details: 50 µM, 48 h incubation
Method: Given that platinum‐based drugs are known to commonly induce DNA damage, a comet assay was conducted using A2780wt cells. This assay detects DNA damage such as DNA single/double strand breaks and DNA fragmentation, a common feature of apoptosis. […] DMF (0.1%)‐treated cells were used as a negative control to establish baseline DNA integrity.
Cellular DNA damage can be visualized by employing a comet assay, which is a single cell gel electrophoresis assay. Hereby, A2780wt cells were seeded at a density of 2 × 10^6 into 25 cm^2 flasks. After letting the cells adhere for 24 h in a humidified atmosphere, the cell culture medium was exchanged for medium containing the respective compound. The cells were then incubated for 48 h with the platinum complexes or 4 h with etoposide, respectively. After incubation, the cell growth was stopped by removing the compound‐containing medium, washing the cells with phosphate‐buffered saline (PBS) and detaching them with a rubber policeman. The detached cells were then centrifuged at 700g for 2 min and the resulting pellet was then washed with 5 mL of PBS. After that, the cells were adjusted to a concentration of 1 × 10^6 cells/mL and were resuspended in ice cold PBS. A total of 75 µL of liquified agarose per condition was transferred onto the slide to create a base layer. This base layer was solidified by transferring the slide to 4°C for 15 min. Afterwards, 10 µL of the above‐mentioned cell suspension in PBS were mixed with 90 µL of agarose. A total of 75 µL of this was added to each base layer, respectively. This layer was also allowed to solidify at 4°C for 15 min. The slide was then transferred to a small basin which contained pre‐chilled lysis buffer (14.6 g NaCl, 20 mL EDTA solution, 10 mL lysis solution, 10 mL DMSO, 60 mL deionized H2O), where it remained for 45 min in the dark at 4°C. The lysis buffer was then aspirated and exchanged with a pre‐chilled alkaline solution (1.2 g NaOH, 0.2 mL EDTA solution, 100 mL deionized H2O), where it remained for further 30 min in the dark at 4°C. The slide was then transferred to a horizontal electrophoresis chamber which was filled with cold alkaline solution. The electrophoresis conditions were set to 1.5 V/cm and 300 mA for 20 min. After the electrophoresis, the slide was transferred into a small basin containing pre‐chilled, deionized H2O. After 2 min, the water was aspirated and this washing step was repeated twice more. After the final rinse, the slide was submerged in 70% ethanol for 5 min. Once the slide has dried, 100 µL of diluted Vista Green DNA Dye was added to each well. After 15 min of incubation, the slides were analyzed on an IX‐70 epifluorescence microscope (Olympus, Shinjuku, Japan) using a FITC filter.

[5] = tested on: A2780wt cells; test: Annexin V/PI staining and FACS analysis, A2780wt; details: reference at 50 µM, 24 h
Method: as §4, §5

[6] = tested on: HS‐5 cells; test: MTT assay, HS‐5 cells; details: 72 h exposure, nonmalignant bone marrow stromal cells
Method: as §1
The exponentially growing cells were seeded at a density of 8 × 10^3 cells/well (A2780wt/cis) or 1 × 10^4 cells/well (HS‐5), respectively, into clear flat‐bottom 96‐well plates in triplicates. Following 24 h of incubation for the adherence of the cells at 37°C in a humidified atmosphere (5% CO2/95% air), the test compounds were added. […] For the evaluation of the cell growth inhibition by the compounds loaded in BGs, the BG suspensions were directly diluted in RPMI 1640 to the desired testing concentration (25 µM). After another 72 h of incubation, the cellular metabolic activity was measured as an indicator of cell viability employing an MTT assay. Hereby, 20 µL of a 5 mg/mL MTT solution was added to each well, respectively. After 3 h of incubation, the medium was discarded, and the formazan crystals formed were dissolved in DMSO for 15 min with gentle shaking. Afterward, the optical density (OD) was measured at 595 and 620 nm, respectively on an EnSpire Multimode Plate Reader (revvity, Waltham, MA, USA). The OD at 620 nm was subtracted from the OD at 595 nm. The OD of the medium was subtracted to exclude the unspecific staining caused by FCS‐containing medium. Cells treated with vehicle control (0.1% DMF) only were set at 100% metabolic activity. The IC50 values were calculated with Prism 8.0 (GraphPad Software Inc., Boston, MA, USA) using nonlinear regression. Significance was evaluated via a one sample t‐test performed with Prism 8.0.

[7] = tested on: surface calreticulin on A2780wt cells; test: Immunofluorescent surface calreticulin staining, A2780wt; details: oxaliplatin at 1 µM for 24 h
Method: (§6) Oxaliplatin, a known metal‐based ICD inducer, was included for comparison.
(§7) A2780wt or A2780cis cells were seeded at a density of 1.2 × 10^5 on cover slips and allowed to adhere for 24 h. […] Subsequently, the cells were washed again three times with PBS and they were incubated after adding the secondary antibody (Alexa‐Fluor‐conjugated anti‐rabbit, 1:200), for 45 min at rt. Subsequently, the cells were washed again three times with PBS and they were mounted on slides with mounting medium. After letting them dry overnight, visualization was performed by spinning disk confocal microscopy. […] Acquired images were background subtracted, individual cells were manually segmented, and fluorescence intensity for the calreticulin staining was quantified with a FIJI software. Two repetitions of the experiment were performed, where at least 20 cells per condition were analyzed and the mean intensity of each sample was calculated, respectively.

[8] = tested on: surface calreticulin on A2780cis cells; test: Immunofluorescent surface calreticulin staining, A2780cis; details: oxaliplatin at 1 µM for 24 h
Method: as §6, §7

SMILES | IC50 [1] [µM] | Resistance factor RF = IC50(A2780cis)/IC50(A2780wt) ([2]; 72 h) | IC50 ([2]; 72 h exposure) [µM] | early apoptosis [3] | late apoptosis/ necrosis [3] | intracellular DNA damage (comet formation) [4] | early apoptosis [5] | late apoptosis/ necrosis [5] | IC50 [6] [µM] | x‐fold intensity of surface calreticulin compared to untreated cells [7] [x‐fold] | x‐fold intensity of surface calreticulin compared to untreated cells [8] [x‐fold]
[NH2][Pt]1([NH2])[O]C(=O)C2(CCC2)C(=O)[O]1 [Carboplatin, (SP‐4‐2)‐diammine(1,1‐cyclobutanedicarboxylato)platinum(II), reference compound] | 33.6 ± 2.1 | 3.1 | 104 ± 11.5 | 6.47 ± 1.75 | 12.6 ± 1.17 | did not show any evidence of comet formation | 7.90 ± 0.29 | 16.8 ± 0.69 | 24.4 ± 0.99 |  | 
O=C1[O][Pt]2([NH][C@@H]3CCCC[C@H]3[NH]2)[O]C1=O [oxaliplatin, (SP‐4‐2)‐(1R,2R‐diaminocyclohexane)oxalatoplatinum(II), reference compound] |  |  |  |  |  |  |  |  |  | 0.86 ± 0.24 | 1.36 ± 0.24

From paper PMC12476087, “Loading of Dicarboxylatoplatinum(II)‐NHC Complexes in Bacterial Ghosts as an Advanced Development in Cancer Therapy” (Archiv Der Pharmazie, 2025)
